Each structure is given as a SMILES string. Like-named read-outs stand apart in the source and are kept apart here.

For data set [1], the system named is HIV virus; viral reverse transcriptase. The experiment in a line: inhibition of viral replication by microassay of the enzymatic activity of the viral reverse transcriptase in CEM culture supernatants. The class given is cell-based. Further details: unit not given here.
Data set [2] has as its system HIV virus (isolate LAV1-BRU). The experiment in a line: inhibition of the cytopathogenic effect (CPE) of the HIV virus toward a continuous line of T4 lymphocytes by colorimetric assay with MTT. The class given is cell-based. A general note: Protection from cytopathic effect is a common read-out in antiviral testing.
Data set [3] can be described thus: 31P-NMR study of the interactions between the phosphotriesters and model membranes (transmembrane transport).
Data set [4] is described as follows: HPLC assay of AZT in the brain of mice after oral administration. The class given is in vivo, Swiss mouse. As for the experimental part: The assays are conducted on the Swiss mouse.
The compounds are dissolved in distilled water (or suspended in distilled water) before being administered by gavage; the assays are performed by administering each compound to 3 mice. The control consists of 3 mice receiving the equivalent of the vehicle, i.e. the same volume of distilled water as the treated mice. The brains are removed 1 hour after garage, homogenized in an acetonitrile-water (3/1) mixture, centrifuged and the supernatant is taken for the HPLC assay.
In a preliminary trial, favourable experimental conditions for the assays of the different compounds by HPLC are determined.
In the table which follows, each line corresponds to an assay series.

Data set [5] relates to HIV virus (isolate LAV1-BRU). The data set is described as follows: selectivity index / protection index (CD50/ED50 ratio). The class given is cell-based. The text has this:
Determination of the selectivity index
The higher the difference between the CD50 and the ED50, the more useful will be the product. This difference is quantified by the selectivity index (the CD50/ED50 ratio).

A short description of data set [6]: in vitro. The note with it: human, cem-c113 cells.

Consider `CCCCCCCCCCCCCCCCOP(=O)(OC[C@H]1OC(O)[C@@H](O)[C@@H](O)[C@@H]1O)OC[C@H]1O[C@@H](n2cc(C)c(=O)[nH]c2=O)C[C@@H]1N=[N+]=[N-]` (stereo partly drawn) [CT 7627, 6-D-mannosyl hexadecyl 5'-(3'-azido)-thymidinyl phosphate], for which the “reverse transcriptase activity in culture supernatant” value was determined as 4000 in data set [1] (0.2 uM, D7); 4700 in data set [1] (0.2 uM, D11); 1700 in data set [1] (0.2 uM, D18); 11000 in data set [1] (0.2 uM, D19); 24000 in data set [1] (0.2 uM, D22); 73000 in data set [1] (0.2 uM, D26). Also, the “reverse transcriptase activity in culture supernatant” value is listed as 2000 in data set [1] (1 uM, D7); 1100 in data set [1] (1 uM, D11); 500 in data set [1] (1 uM, D18); 1400 in data set [1] (1 uM, D19); 3900 in data set [1] (1 uM, D22); 20000 in data set [1] (1 uM, D26). The EC50 in data set [2] (Human immunodeficiency virus 1, CEM-c113, read-out: ED50 (protective dose 50%), D7 of culture, CEM-C113 cells) was less than 200 nM; in data set [2] (Human immunodeficiency virus 1, CEM-c113, read-out: ED50 (protective dose 50%), D11 of culture, CEM-C113 cells) it was 300 nM; in data set [2] (Human immunodeficiency virus 1, CEM-c113, read-out: ED50 (protective dose 50%), D19 of culture, CEM-C113 cells), 500 nM; in data set [2] (Human immunodeficiency virus 1, CEM-c113, read-out: ED50 (protective dose 50%), D22 of culture, CEM-C113 cells) it was 400 nM. Further, the “interaction with / location in unilamellar vesicles (in words)” value in data set [3] is given as “interacts only with the external lipid layer of the unilamellar vesicles”. In data set [4] (25 mg/kg oral, 1 hour, AZT equivalent micromol per mouse: CT 6651, CT 7627 0.68, CT 7625 0.64), the “Phosphotriester detected by HPLC per gram of brain, individual value” is 0 µg. Moreover, the concentration at 1 h in data set [4] (mouse, brain, po, 25 mg/kg, read-out: Phosphodiester detected by HPLC per gram of brain, individual value) is 2050 ng/g. Besides, in data set [5], the “PROTECTION INDICES (P.I.), CD50/ED50” value is given as greater than 13. Half-maximal cytotoxicity in data set [6] (CC50 at 168 h) was put at 2600 nM. In addition, the CC50 (as a rule, the concentration at which the toxic effect on the cells reaches its halfway point) at 264 h in data set [6] turned out to be 2600 nM. The compound also displayed a CC50 at 456 h in data set [6] of 2500 nM. Also, the midpoint of cytotoxicity in data set [6], the CC50 at 528 h, lay at 25000 nM.

For the origin of these results see patent US5358937A, “Glycosyl phospholipid derivatives of nucleosides and their use as medicines” (priority 1989, dated 1994).
